Measured values from US12091426B2, “Bifunctional degraders of hematopoietic progenitor kinase and therapeutic uses thereof” (Nurix Therapeutics, Inc., priority 2021, dated 2024).

Biological target: T1, HPK1 (Homo sapiens, UniProt Q92918)
T1 construct: A HiBiT tag was introduced by CRISPR on the N terminus of HPK1 in Jurkat cells; host or cells: Jurkat cells (ATCC TIB-152), monoclonal line with CRISPR knock-in of HiBiT at the endogenous HPK1 locus
Experiment: HPK1 Cellular HiBit Degradation Assay
Format: cell-based
Conditions: HiBiT HPK1 Jurkat cells, 24 hrs; for DC50: concentration at which 50% of HPK1 was remaining, read-out: DC50 Category; for Dmax: Jurkat, maximum degradation vs DMSO vehicle control, read-out: Dmax Category
Procedure, shortened: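 Degraders are dosed in an 11-point series (10 uM to 0.1 nM final) onto Jurkat cells carrying an N-terminal HiBiT tag on endogenous HPK1. After 24 hrs at 37° C, lysis-based HiBiT luminescence quantifies remaining HPK1 relative to vehicle, and curve fitting gives DC50 and Dmax.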

T1 sequence (Q92918 whole entry): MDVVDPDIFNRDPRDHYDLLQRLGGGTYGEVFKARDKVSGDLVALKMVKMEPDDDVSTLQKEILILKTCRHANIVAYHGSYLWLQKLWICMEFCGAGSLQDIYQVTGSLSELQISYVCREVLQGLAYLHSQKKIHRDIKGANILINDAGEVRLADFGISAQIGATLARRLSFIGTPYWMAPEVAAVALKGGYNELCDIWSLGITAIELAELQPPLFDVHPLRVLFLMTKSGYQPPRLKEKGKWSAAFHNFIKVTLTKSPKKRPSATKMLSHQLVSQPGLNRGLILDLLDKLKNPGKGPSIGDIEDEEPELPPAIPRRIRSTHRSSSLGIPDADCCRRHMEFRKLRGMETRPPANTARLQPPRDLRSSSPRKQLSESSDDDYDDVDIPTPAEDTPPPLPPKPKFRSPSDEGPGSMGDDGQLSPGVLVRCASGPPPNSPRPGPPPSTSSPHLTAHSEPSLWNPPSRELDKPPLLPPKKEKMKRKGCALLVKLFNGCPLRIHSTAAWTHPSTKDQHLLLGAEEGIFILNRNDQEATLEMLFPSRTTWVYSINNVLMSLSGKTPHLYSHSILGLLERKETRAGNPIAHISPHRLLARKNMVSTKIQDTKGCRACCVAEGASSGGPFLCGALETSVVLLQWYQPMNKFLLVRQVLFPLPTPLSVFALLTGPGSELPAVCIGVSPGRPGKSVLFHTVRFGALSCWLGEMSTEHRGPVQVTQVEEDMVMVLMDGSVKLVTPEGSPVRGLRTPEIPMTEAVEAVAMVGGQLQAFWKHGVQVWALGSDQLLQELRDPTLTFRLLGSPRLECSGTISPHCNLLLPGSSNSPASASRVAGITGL

Row | Compound | DC50 [nM] | Dmax [%]
1 | CC(C)n1cnc2cc(-c3ccc4c(c3)N([C@H]3C[C@@H](N5CCCCC5)C3)C(=O)C43CCN(C(=O)C4CCN(C(=O)C5CCN(c6ccc(N7CCC(=O)NC7=O)cc6)CC5)CC4)CC3)nc(Nc3ccccc3F)c21 [Example 70, 1-[4-(4-{4-[(6-{4-[(2-fluorophenyl)amino]-3-(propan-2-yl)-3H-imidazo[4,5-c]pyridin-6-yl}-2-oxo-1-[(1S,3S)-3-(piperidin-1-yl)cyclobutyl]-1,2-dihydrospiro[indole-3,4′-piperidin]-1′-yl)carbonyl]piperidine-1-carbonyl}piperidin-1-yl)phenyl]-1,3-diazinane-2,4-dione] | < 100 | > 85
2 | CC(C)n1cnc2cc(-c3ccc4c(c3)N([C@H]3C[C@@H](N5CCCCC5)C3)C(=O)C43CCN(C(=O)[C@H]4CC[C@H](C(=O)N5CCC(N(C)c6ccc(C7CCC(=O)NC7=O)cc6)CC5)CC4)CC3)nc(NC3CC3)c21 (mixture of isomers) [Example 134, (3RS)-3-{4-[methyl({1-[(1R,4R)-4-({6-[4-(cyclopropylamino)-3-(propan-2-yl)-3H-imidazo[4,5-c]pyridin-6-yl]-2-oxo-1-[(1S,3S)-3-(piperidin-1-yl)cyclobutyl]-1,2-dihydrospiro[indole-3,4′-piperidin]-1′-yl}carbonyl)cyclohexanecarbonyl]piperidin-4-yl})amino]phenyl}piperidine-2,6-dione] | 100 to 500 | 50 to 70
3 | CC(C)n1cnc2cc(-c3ccc4c(c3)N([C@H]3C[C@@H](N5CCCCC5)C3)C(=O)C43CCN(C(=O)[C@@H]4CCN(C(=O)[C@H]5CC[C@H](Oc6ccc(C7CCC(=O)NC7=O)cc6)CC5)C4)CC3)nc(Nc3ccccc3F)c21 (stereo partly drawn) [Example 14, 3-(4-{[(1R,4R)-4-[(3R)-3-[(6-{4-[(2-fluorophenyl)amino]-3-(propan-2-yl)-3H-imidazo[4,5-c]pyridin-6-yl}-2-oxo-1-[(1S,3S)-3-(piperidin-1-yl)cyclobutyl]-1,2-dihydrospiro[indole-3,4′-piperidin]-1′-yl)carbonyl]pyrrolidine-1-carbonyl]cyclohexyl]oxy}phenyl)piperidine-2,6-dione] | < 100 | > 85
4 | CC(C)n1cnc2cc(-c3ccc4c(c3)N([C@H]3C[C@@H](N5CCCCC5)C3)C(=O)C43CCN(C(=O)C4CCN(C(=O)C5CCN(c6ncc(C7CCC(=O)NC7=O)cn6)CC5)CC4)CC3)nc(Nc3ccccc3F)c21 (stereo partly drawn) [Example 90, 3-(2-(4-(4-(6-(4-((2-fluorophenyl)amino)-3-isopropyl-3H-imidazo[4,5-c]pyridin-6-yl)-2-oxo-1-((1S,3S)-3-(piperidin-1-yl)cyclobutyl)spiro[indoline-3,4′-piperidine]-1′-carbonyl)piperidine-1-carbonyl)piperidin-1-yl)pyrimidin-5-yl)piperidine-2,6-dione] | < 100 | 70 to 85
5 | CC(C)n1cnc2cc(-c3ccc4c(c3)N([C@H]3C[C@@H](N5CCCCC5)C3)C(=O)C43CCN(C(=O)[C@@H]4CCN(C(=O)[C@H]5CC[C@H](Nc6ccc(C7CCC(=O)NC7=O)cc6)CC5)C4)CC3)nc(NC3CC3)c21 (mixture of isomers) [Example 2, (3RS)-3-(4-{[(1R,4R)-4-[(3R)-3-({6-[4-(cyclopropylamino)-3-(propan-2-yl)-3H-imidazo[4,5-c]pyridin-6-yl]-2-oxo-1-[(1S,3S)-3-(piperidin-1-yl)cyclobutyl]-1,2-dihydrospiro[indole-3,4′-piperidin]-1′-yl}carbonyl)pyrrolidine-1-carbonyl]cyclohexyl]amino}phenyl)piperidine-2,6-dione] | < 100 | 70 to 85
6 | CC(C)n1cnc2cc(-c3ccc4c(c3)N([C@H]3C[C@@H](N5CCCCC5)C3)C(=O)C43CCN(C(=O)C[C@@H]4CCN(C(=O)[C@H]5CC[C@@H](Nc6cccc7c6C(=O)N(C6CCC(=O)NC6=O)C7=O)CC5)C4)CC3)nc(NC3CC3)c21 (mixture of isomers) [Example 35, 2-[(3RS)-2,6-dioxopiperidin-3-yl]-4-{[(1R,4R)-4-[(3S)-3-(2-{6-[4-(cyclopropylamino)-3-(propan-2-yl)-3H-imidazo[4,5-c]pyridin-6-yl]-2-oxo-1-[(1S,3S)-3-(piperidin-1-yl)cyclobutyl]-1,2-dihydrospiro[indole-3,4′-piperidin]-1′-yl}-2-oxoethyl)pyrrolidine-1-carbonyl]cyclohexyl]amino}-2,3-dihydro-1H-isoindole-1,3-dione] | 500 to 1000 | 50 to 70
7 | CC(C)n1cnc2cc(-c3ccc4c(c3)N([C@H]3C[C@@H](N5CCCCC5)C3)C(=O)C43CCN(CC(=O)N(C)C4CCN(C(=O)C5CCN(c6cc(C7CCC(=O)NC7=O)ccn6)CC5)CC4)CC3)nc(NC3CC3)c21 (stereo partly drawn) [Example 201, 2-{6-[4-(cyclopropylamino)-3-(propan-2-yl)-3H-imidazo[4,5-c]pyridin-6-yl]-2-oxo-1-[(1S,3S)-3-(piperidin-1-yl)cyclobutyl]-1,2-dihydrospiro[indole-3,4′-piperidin]-1′-yl}-N-(1-{1-[4-(2,6-dioxopiperidin-3-yl)pyridin-2-yl]piperidine-4-carbonyl}piperidin-4-yl)-N-methylacetamide] | 100 to 500 | 50 to 70

Now from value to compound:

Row | DC50 [nM] | Dmax [%] | Compound
8 | < 100 | > 85 | CC(C)n1cnc2cc(-c3ccc4c(c3)N([C@H]3C[C@@H](N5CCCCC5)C3)C(=O)C43CCN(C(=O)C4(C)CCN(C(=O)C5CCN(c6ccc(C7CCC(=O)NC7=O)cn6)CC5)CC4)CC3)nc(Oc3ccccc3)c21 (stereo partly drawn) [Example 168, 3-(6-{4-[4-methyl-4-({2-oxo-6-[4-phenoxy-3-(propan-2-yl)-3H-imidazo[4,5-c]pyridin-6-yl]-1-[(1S,3S)-3-(piperidin-1-yl)cyclobutyl]-1,2-dihydrospiro[indole-3,4′-piperidin]-1′-yl}carbonyl)piperidine-1-carbonyl]piperidin-1-yl}pyridin-3-yl)piperidine-2,6-dione]
9 | 100 to 500 | 50 to 70 | CC(C)n1cnc2cc(-c3ccc4c(c3)N([C@H]3C[C@@H](N5CCCCC5)C3)C(=O)C43CCN(C(=O)C4C5CN(C(=O)C6CCN(c7ccc(C8CCC(=O)NC8=O)cn7)CC6)CC54)CC3)nc(NC3CC3)c21 (mixture of isomers) [Example 38, (3RS)-3-(6-{4-[6-({6-[4-(cyclopropylamino)-3-(propan-2-yl)-3H-imidazo[4,5-c]pyridin-6-yl]-2-oxo-1-[(1S,3S)-3-(piperidin-1-yl)cyclobutyl]-1,2-dihydrospiro[indole-3,4′-piperidin]-1′-yl}carbonyl)-3-azabicyclo[3.1.0]hexane-3-carbonyl]piperidin-1-yl}pyridin-3-yl)piperidine-2,6-dione]
10 | 100 to 500 | 70 to 85 | CC(C)n1cnc2cc(-c3ccc4c(c3)N([C@H]3C[C@@H](N5CCCCC5)C3)C(=O)C43CCN(C(=O)C4CCN(C(=O)[C@H]5CCN(c6ccc(C7CCC(=O)NC7=O)cn6)C5)CC4)CC3)nc(Nc3ccccc3F)c21 (mixture of isomers) [Example 65, (3RS)-3-{6-[(3S)-3-{4-[(6-{4-[(2-fluorophenyl)amino]-3-(propan-2-yl)-3H-imidazo[4,5-c]pyridin-6-yl}-2-oxo-1-[(1S,3S)-3-(piperidin-1-yl)cyclobutyl]-1,2-dihydrospiro[indole-3,4′-piperidin]-1′-yl)carbonyl]piperidine-1-carbonyl}pyrrolidin-1-yl]pyridin-3-yl}piperidine-2,6-dione]
11 | < 100 | 70 to 85 | CC(C)n1cnc2cc(-c3ccc4c(c3)N([C@H]3C[C@@H](N5CCCCC5)C3)C(=O)C43CCN(C(=O)C4(C)CCN(C(=O)C5CCN(c6ccc([C@@H]7CCC(=O)NC7=O)cn6)CC5)CC4)CC3)nc(OC3CCOCC3)c21 [Example 165, 3-(6-{4-[4-methyl-4-({6-[4-(oxan-4-yloxy)-3-(propan-2-yl)-3H-imidazo[4,5-c]pyridin-6-yl]-2-oxo-1-[(1S,3S)-3-(piperidin-1-yl)cyclobutyl]-1,2-dihydrospiro[indole-3,4′-piperidin]-1′-yl}carbonyl)piperidine-1-carbonyl]piperidin-1-yl}pyridin-3-yl)piperidine-2,6-dione]
12 | 100 to 500 | > 85 | CC(C)n1cnc2cc(-c3ccc4c(c3)N([C@H]3C[C@@H](N5CCCCC5)C3)C(=O)C43CCN(C(=O)C4(C(F)(F)F)CCN(C(=O)C5CCN(c6ccc(C7CCC(=O)NC7=O)cn6)CC5)CC4)CC3)nc(NC3CC3)c21 (mixture of isomers) [Example 275, (3RS)-3-(6-{4-[4-({6-[4-(cyclopropylamino)-3-(propan-2-yl)-3H-imidazo[4,5-c]pyridin-6-yl]-2-oxo-1-[(1S,3S)-3-(piperidin-1-yl)cyclobutyl]-1,2-dihydrospiro[indole-3,4′-piperidin]-1′-yl}carbonyl)-4-(trifluoromethyl)piperidine-1-carbonyl]piperidin-1-yl}pyridin-3-yl)piperidine-2,6-dione]
13 | < 100 | 70 to 85 | CC(C)n1cnc2cc(-c3ccc4c(c3)N([C@H]3C[C@@H](N5CCCCC5)C3)C(=O)C43CCN(C(=O)C4(F)CCCN(C(=O)C5CCN(c6ccc(C7CCC(=O)NC7=O)cn6)CC5)C4)CC3)nc(NC3CC3)c21 (mixture of isomers) [Example 280, (3RS)-3-(6-{4-[3-({6-[4-(cyclopropylamino)-3-(propan-2-yl)-3H-imidazo[4,5-c]pyridin-6-yl]-2-oxo-1-[(1S,3S)-3-(piperidin-1-yl)cyclobutyl]-1,2-dihydrospiro[indole-3,4′-piperidin]-1′-yl}carbonyl)-3-fluoropiperidine-1-carbonyl]piperidin-1-yl}pyridin-3-yl)piperidine-2,6-dione]
